Assay results published in patent US9562031B1, “Phenethyldihydrobenzodioxolones and methods of use” (Sequoia Sciences, Inc., priority 2015, dated 2017).

Tests used:
OVCAR-4 cells = assay: antiproliferation assay, OVCAR-4; assay type: cell-based; conditions: Homo sapiens
Procedure: For the antiproliferation assay, NCI-H460 (large cell lung carcinoma) or M14 (amelanotic melanoma) cells were grown in RPMI-1640 with 10% FBS supplemented with L-glutamine and HEPES. Cells were seeded into 96-well plates at 5×10^2 to 5×10^4 cells/well and allowed to adhere overnight; the medium was then removed. A stock solution of test compound in DMSO was diluted in medium to generate a series of working solutions. Aliquots (100 μl) of the working solutions were then added to the appropriate test wells to expose cells to the final concentrations of compound in a total volume of 100 μl. Seven different concentrations were tested, with 2-5 wells per concentration. Camptothecin was used as a positive control; wells containing vehicle without compound were used as negative controls. Plates were kept for 72 h in a 37° C., 5% CO2 incubator. After incubation, viable cells were detected with the CELLTITER 96 AQueous Non-Radioactive Cell Proliferation Assay (Promega), and IC50 values were determined using GraphPad Prism 5 software.
Antiproliferation of several of the active compounds was tested against additional cell lines.

SK-Mel-2 cells = assay: NCI-60 panel antiproliferation, SK-MEL-2; assay type: cell-based, human; conditions: Homo sapiens, NCI 60-cell panel
Procedure: (§1) Bifidenone and Compound 37 were tested for antiproliferation activity against the NCI-60 panel of cancer cell lines. COMPARE analysis was then conducted to compare the activity “fingerprint” of bifidenone to those of known classes of compounds (Zhou, B.-N., Hoch, J. M., Johnson, R. K., Mattern, M. R., Eng, W.-K., Ma, J., Hecht, S. M., Newman, D. J., Kingston, D. G. I., 2000. Use of COMPARE Analysis to Discover New Natural Product Drugs: Isolation of Camptothecin and 9-Methoxycamptothecin from a New Source. Journal of Natural Products 63, 1273-1276.).

MCF-7 cells = assay: NCI-60 panel antiproliferation, MCF-7; assay type: cell-based, human; conditions: Homo sapiens, MCF7, NCI 60-cell panel
Procedure: as §1

| IC50 (OVCAR-4 cells) | Structure (SMILES) | IC50 (SK-Mel-2 cells) | IC50 (MCF-7 cells) |
| --- | --- | --- | --- |
| 6.4 nM | C=CC[C@H]1C[C@]2([C@H](C)Cc3cc(O)c(OC)cc3F)OCOC2=CC1=O (relative stereo) [Compound 4, 6-allyl-7a-(1-(2-fluoro-5-hydroxy-4-methoxyphenyl)propan-2-yl)-7,7a-dihydrobenzo[d][1,3]dioxol-5(6H)-one] | – | – |
| – | C=CC[C@H]1C[C@]2([C@@H](C)Cc3ccc(OC)c(F)c3)OCOC2=CC1=O [Compound 37, (6S,7aR)-6-allyl-7a-((S)-1-(3-fluoro-4-methoxyphenyl)propan-2-yl)-7,7a-dihydrobenzo[d][1,3]dioxol-5(6H)-one] | 51 nM | 63 nM |
